Article PMC5225183, “Fingerprinting of neurotoxic compounds using a mouse embryonic stem cell dual luminescence reporter assay” (Archives of Toxicology, 2016)
Like-named read-outs stand apart in the source and are kept apart here. Marks after values point to notes of the source that are not given here. Square brackets hold non-standard residues; d marks the D form. Peptide text beside a SMILES is read from it. * marks the point of attachment. Fmoc = O=C(OCC1c2ccccc2-c2ccccc21)*; Cha = N[C@@H](CC1CCCCC1)C(=O)O; AMC = Cc1cc(=O)oc2cc(N*)ccc12

Key:
[1] = test system: CGR8-2Luc ESCs
From the text: (§1) Fig. 1 Synopsis of experimental protocols. The impact of compounds on neural promoter activity (FLuc, Firefly Luciferase under the control of the Tα1 promoter), general promoter activity (RLuc, Renilla Luciferase under the control of the EF1α promoter), and amount of DNA (PI, propidium iodide fluorescence in cell homogenates) was investigated in undifferentiated mouse embryonic pluripotent stem cells (ESCs) and on ESC-derived neurons. Arrows indicate the time of measurement of the three parameters. a Protocol for testing compounds effects on ESCs. CGR8-2Luc cells were plated on gelatin-coated 96-well plates in maintenance medium (BHK21 medium containing 10 % FCS, L-glutamine, NEAA, P/S, and LIF). Twenty-four hours later, cells were exposed to compounds for forty-eight hours. b Protocol for testing compounds on ESC-derived neurons. CGR8-2Luc cells were co-cultured with MS5 cells to induce neural differentiation in DMEM medium containing 15 % KO-serum, NEAA, β-mercaptoethanol, and P/S. On day 5, cells were detached and seeded on polyornithine-coated plates in DMEM medium containing N2 supplement, bFGF, and P/S; compound exposure was from day 6 to day 8
(§2) To test compounds on ESC-derived neurons, neuronal differentiation was carried out as previously described (Suter et al. [2009]; Xu et al. [2014]). Briefly, CGR8-2Luc cells were seeded on irradiated bone marrow-derived stromal MS5 cells and cultivated for 4 days in DMEM medium containing 15 % Knock-out™ Serum Replacement, non-essential amino acids, beta-mercaptoethanol, and penicillin/streptomycin. At day 5, cells were then re-plated (3 × 10^5 cells/cm^2) on polyornithine-coated 96-well plates in N2 medium containing DMEM, N2 supplement, penicillin/streptomycin, and 10 ng/ml basic human fibroblast growth factor (bFGF) (Invitrogen). […] To assess toxicity of compounds on undifferentiated pluripotent stem cells (ESCs), CGR8-2Luc cells were plated at 45,000 cells/cm^2 on 0.1 % gelatin-coated dishes in BHK21 medium, supplemented with 10 % fetal calf serum, L-glutamine, non-essential amino acids, penicillin/streptomycin, and leukemia inhibitory factor (LIF). After 24 h, compounds were added and incubated for 48 h, before luciferase expression and PI fluorescence were analyzed. In all experiments, methylmercury was used as a positive control at a concentration of 5 µM.
(§3) After measurement of luciferase activity, DNA quantity was determined by PI assay, as previously described (Xu et al. [2014]). PI was added to cell homogenates after the luciferase test, at a final concentration of 50 µg/ml and incubated for 2 h. After incubation, fluorescence intensity was measured on a Flexstation 3 microplate reader (Excitation: 544 nm ± 15 nm; Emission: 620 nm ± 15 nm). Results are expressed as percentage of control. Propidium iodide (PI) measures total DNA content as an approximation of the cell number. A decrease in PI fluorescence was interpreted as a decrease in cell number and therefore throughout the text referred to as cytotoxicity.
(§4) Lowest adverse effect level (LOAEL) was defined as the lowest tested concentrations that lead to a statistically significant decrease for a given read-out (FLuc, RLuc, and PI) compared to baseline. “Baseline” was not in all cases defined by untreated cells, but may also refer to, e.g., a state of increased activity due to low, non-toxic compound concentrations.

[2] = test system: ESC-derived neurons
From the text: as §1, §2, §3, §4

[3] = test system: Tubulin α1 (Tα1) promoter; assay: cells
From the text: (§5) Dual luciferase expressing CGR8-2Luc cells were obtained by transduction of mouse ESC CGR8 cells with the 2K7 EFS-Renilla Luciferase (RLuc)/Talpha1-Firefly Luciferase (FLuc) vector as previously described (Suter et al. [2006], [2009]); EFS corresponds to the short promoter of the eukaryotic translation elongation factor 1 alpha (EF1α), and Talpha1 to the Tubulin α1 (Tα1) promoter. Tα1 was selected as a promoter active in neurons, including early stages of neural differentiation. EF1α was originally selected to function as a constitutive promoter; however, it responds to cellular differentiation as well as to various chemicals, as previously shown (Kern et al. [2013]). Cells were cultured on 0.1 % gelatin-coated dishes in CGR8-2luc maintenance medium: BHK21 medium, supplemented with 10 % fetal calf serum, L-glutamine, non-essential amino acids, penicillin/streptomycin, and leukemia inhibitory factor (LIF). CGR8 cells were grown in a feeder-independent manner (embryonic pluripotent stem cells, ESCs) as described in protocol 1 (Fig. 1) before testing compounds of interest.
as §1, §2
(§6) Luciferase activities were measured with a Dual-Luciferase™ Reporter system kit. CGR8-2Luc ES cells were lysed in 96-well plates according to the manufacturer’s instructions. Luminescence measurements were performed on a Fluostar Optima reader. Luminescence counts were expressed as percentage of promoter activity normalized by comparison with the control wells treated by DMSO.

[4] = test system: EF1α promoter
From the text: as §5, §1, §2, §6

[5] = test system: Tubulin α1 (Tα1) promoter
From the text: as §5, §1, §2, §6

[6] = test system: ESCs and ESC-derived neurons; assay: Dual luminescence reporter test system, all readouts in ESCs and ESC-derived neurons
From the text: as §1, with “neurons.” for “neurons. CGR8-2Luc cells were co-cultured with MS5 cells to induce neural differentiation in DMEM medium containing 15 % KO-serum, NEAA, β-mercaptoethanol, and P/S. On day 5, cells were detached and seeded on polyornithine-coated plates in DMEM medium containing N2 supplement, bFGF, and P/S; compound exposure was from day 6 to day 8”
as §2, with “At” for “To test compounds on ESC-derived neurons, neuronal differentiation was carried out as previously described (Suter et al. [2009]; Xu et al. [2014]). Briefly, CGR8-2Luc cells were seeded on irradiated bone marrow-derived stromal MS5 cells and cultivated for 4 days in DMEM medium containing 15 % Knock-out™ Serum Replacement, non-essential amino acids, beta-mercaptoethanol, and penicillin/streptomycin. At”
Luciferase activities were measured with a Dual-Luciferase™ Reporter system kit. CGR8-2Luc ES cells were lysed in 96-well plates according to the manufacturer’s instructions. Luminescence measurements were performed on a Fluostar Optima reader. Luminescence counts were expressed as percentage of promoter activity normalized by comparison with the control wells treated by DMSO. […] parameters were measured in homogenates of ESCs and in ESC-derived neurons: (1) FLuc, reflecting the activity of early neural promoter Tα1. FLuc increases during neuronal differentiation. Many neurotoxic compounds may affect FLuc expression, either through impact on neuronal differentiation, through changes of neuronal gene expression, or through killing of neurons.
PI was added to cell homogenates after the luciferase test, at a final concentration of 50 µg/ml and incubated for 2 h. After incubation, fluorescence intensity was measured on a Flexstation 3 microplate reader (Excitation: 544 nm ± 15 nm; Emission: 620 nm ± 15 nm). Results are expressed as percentage of control. Propidium iodide (PI) measures total DNA content as an approximation of the cell number. A decrease in PI fluorescence was interpreted as a decrease in cell number and therefore throughout the text referred to as cytotoxicity.
To describe the shape of different concentration–response curves, arbitrary scores were assigned as follows: 0 for “no change,” 1 for “down-stroke,” 2 for “bimodal profile,” and 3 for “up-stroke” (Fig. S1). A curve was classified as “down-stroke” or “up-stroke” if the change in response values comparative to control was statistically significant (p value <0.05, one-way ANOVA with post hoc Dunnett) with an additional requirement of a 30 % decrease or increase of mean response value relative to controls, respectively. If the absolute change in mean response values was below 30 % the curve was classified as “no change.” A curve was classified as “bimodal” if first up-stroke and subsequently down-stroke was observed.

[7] = in vivo; cited from earlier work
[8] = undifferentiated ESCs, 48 h exposure, PI assay (cytotoxicity)
[9] = ESC-derived neurons, 48 h exposure, PI assay (cytotoxicity)
[10] = ESC-derived neurons, 48 h exposure
[11] = undifferentiated ESCs, 48 h exposure
[12] = undifferentiated ESCs, 48 h exposure, lowest tested concentration with statistically significant decrease
[13] = reporter activity changes in the non-cytotoxic concentration range, highest possible number 4

Row | Compound | LOAEL ESC DNA [1, 8] | LOAEL Neurons DNA [2, 9] | LOAEL Neurons Tα1 [3, 10] | LOAEL Neurons EF1α [4, 10] | LOAEL ESC EF1α [4, 11] | LOAEL ESC Tα1 [5, 12] | Number of non-cytotoxic changes ([6]; mouse, 48 h) | LOAEL Neurons EF1α ([4]; mouse, 48 h) | Concentration in humans [7] | result in the dual luminescence reporter test system [6] | Number of non-cytotoxic changes [6, 13] | LOAEL Neurons Tα1 ([3]; ESC-derived neurons, 48 h exposure, listed as amiodarone) | LOAEL ESC DNA ([1]; mouse) | LOAEL Neurons DNA ([2]; mouse) | LOAEL Neurons Tα1 ([3]; mouse) | LOAEL ESC EF1α ([4]; mouse) | LOAEL Neurons EF1α ([4]; mouse) | LOAEL ESC Tα1 ([5]; mouse) | result in the dual luminescence reporter test system ([6]; ESCs and neurons, FLuc, RLuc, PI)
1 | Cc1ccc(NC(=O)c2ccc(CN3CCN(C)CC3)cc2)cc1Nc1nccc(-c2cccnc2)n1 [Imatinib] | >10 µM | >10 µM | 10 µM | 10 µM | >10 µM | 10 µM | 3 | – | – | – | – | – | – | – | – | – | – | – | –
2 | CCC[C@H](NC(=O)[C@@H]1[C@H]2CCC[C@H]2CN1C(=O)[C@@H](NC(=O)[C@@H](NC(=O)c1cnccn1)C1CCCCC1)C(C)(C)C)C(=O)C(=O)NC1CC1 [Telaprevir] | 50 µM | 50 µM | 50 µM | – | 50 µM | 50 µM | 0 | 50 µM | 5.1^k µM | – | – | – | – | – | – | – | – | – | –
3 | CC(C1CC1)C(O)(Cn1cncn1)c1ccc(Cl)cc1 (stereo not drawn) [Cyproconazole] | >50 µM | >50 µM | >50 µM | >50 µM | >50 µM | >50 µM | 0 | – | – | did not give a signal | – | – | – | – | – | – | – | – | –
4 | Cc1cc(=O)oc2cc(NC(=O)[C@H](CCCCN)NC(=O)[C@H](CC3CCCCC3)NC(=O)OCC3c4ccccc4-c4ccccc43)ccc12 [Galnon] (Fmoc-[Cha]-Lys-{AMC}) | 20 µM | >20 µM | 5 µM | 5 µM | 20 µM | 20 µM | – | – | – | – | 2 | – | – | – | – | – | – | – | –
5 | CCCc1nn(C)c2c(=O)[nH]c(-c3cc(S(=O)(=O)N4CCN(C)CC4)ccc3OCC)nc12 [Sildenafil] | >50 µM | >50 µM | >50 µM | >50 µM | >50 µM | >50 µM | 0 | – | – | – | – | – | – | – | – | – | – | – | –
6 | CCCCc1oc2ccccc2c1C(=O)c1cc(I)c(OCCN(CC)CC)c(I)c1 [Amiodarone] | – | – | 50 µM | – | – | – | 1 | – | – | – | – | 5 µM | – | – | – | – | – | – | –
7 | CC(C)(C)C(=O)C(Oc1ccc(Cl)cc1)n1cncn1 (stereo not drawn) [Triadimefon] | – | – | – | – | – | – | – | – | – | relatively weak responses | – | – | >50 µM | >50 µM | >50 µM | >50 µM | 50 µM | 50 µM | potentially neurotoxic
8 | COc1cccc2c1C(=O)c1c(O)c3c(c(O)c1C2=O)C[C@@](O)(C(=O)CO)C[C@@H]3O[C@H]1C[C@H](N)[C@H](O)[C@H](C)O1 [Doxorubicin] | 0.005 µM | 0.005 µM | 0.005 µM | 0.005 µM | 0.005 µM | 0.005 µM | 0 | – | – | strongly decreased the neuronal and general reporter activities, as well as the cell number | – | – | – | – | – | – | – | – | –
9 | Exenatide | >0.02 µM | >0.02 µM | >0.02 µM | >0.02 µM | >0.02 µM | >0.02 µM | – | – | – | – | 0 | – | – | – | – | – | – | – | –
